TGI data for 13 molecules are collected here from PubChem BioAssay (NCI).

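In this assay, cells in 96-well plates receive the compound at five concentrations for 48 hours. Endpoints are linearly interpolated between the surrounding concentrations. The concentration for full growth arrest is given as TGI.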

One assay has as its system MDA-MB-231 breast. Nature of the assay: growth of human tumour cells (NCI), 48 h.
`O=C1CCCc2cc3c(cc21)CC1(Cc2ccccc2C1)C3` came in with a TGI of 46.6 µM.

Consider `CCOC(=O)c1cn2c(n1)sc1cccc(C)c12`, for which the TGI was more than 100 µM.

The next assay relates to CAKI-1 renal. Nature of the assay: growth of human tumour cells (NCI), 48 h.
In turn, `COC(=O)C1SC(SC)=NC12c1ccccc1Nc1ccccc12` (stereo unspecified) registered a TGI of more than 100 µM.

Molecule `CCOC(=O)CSc1c(C(=O)OCC)c(=O)n(-c2ccccc2)c(=S)n1-c1ccccc1` displayed a TGI of more than 100 µM.

In turn, `CCC(C(=O)O)c1ccc(OC)cc1` (stereo unspecified) came in with a TGI of more than 100 µM.

For `COC(CCC[N+](C)(C)C)CC[N+](C)(C)C` (stereo unspecified), the TGI is more than 100 µM.

`CC(C)(C)N1CSC(=S)N(Cc2ccco2)C1` came in with a TGI of 12.4 µM.

`CCCCC#C[I+]c1ccccc1` came in with a TGI of 27.1 µM.

The molecule `COc1cc(C2c3cc4c(cc3OC(N3CCOCC3)C2C)OCO4)ccc1O` (stereo unspecified) yielded a TGI of 71.1 µM.

Take `CCOC(=O)c1cn2c(n1)sc1cccc(C)c12`: the TGI is more than 100 µM.

Regarding `Clc1ccccc1C(SCc1ccccc1)SCc1ccccc1`, the TGI was more than 100 µM.

With `Cc1c(O)c(O)cc[n+]1C1OC(CO)C(O)C1O` (stereo unspecified), the TGI was more than 100 µM.

Another assay has as its system SK-MEL-28 melanoma. Nature of the assay: growth of human tumour cells (NCI), 48 h.
On to `O=C(NC(=O)c1ccccc1[N+](=O)[O-])Nc1ccc(Oc2ncc(Br)cn2)c(Cl)c1`, for which the TGI came out at 0.0733 µM.

`COC(=O)C1SC(SC)=NC12c1ccccc1Nc1ccccc12` (stereo unspecified) yielded a TGI of 48.5 µM.

The molecule `CCOC(=O)CSc1c(C(=O)OCC)c(=O)n(-c2ccccc2)c(=S)n1-c1ccccc1` registered a TGI of more than 100 µM.

As for `CCC(C(=O)O)c1ccc(OC)cc1` (stereo unspecified), the TGI was more than 100 µM.

Regarding `COC(CCC[N+](C)(C)C)CC[N+](C)(C)C` (stereo unspecified), the TGI was more than 100 µM.

In turn, `CC(C)(C)N1CSC(=S)N(Cc2ccco2)C1` registered a TGI of 10.8 µM.

Turning to `CC(C)CCS(=O)(=O)OCCCCOS(=O)(=O)CCC(C)C`, the TGI is more than 100 µM.

`CCCCC#C[I+]c1ccccc1` had a TGI of 31.8 µM.

In turn, `COc1cc(C2c3cc4c(cc3OC(N3CCOCC3)C2C)OCO4)ccc1O` (stereo unspecified) returned a TGI of more than 100 µM.

Regarding `Clc1ccccc1C(SCc1ccccc1)SCc1ccccc1`, the TGI is more than 100 µM.

Molecule `Cc1c(O)c(O)cc[n+]1C1OC(CO)C(O)C1O` (stereo unspecified) yielded a TGI of more than 100 µM.

A further assay relates to M14 melanoma. Nature of the assay: growth of human tumour cells (NCI), 48 h.
Molecule `COC(=O)C1SC(SC)=NC12c1ccccc1Nc1ccccc12` (stereo unspecified) showed a TGI of 40.1 µM.

As to `CCOC(=O)CSc1c(C(=O)OCC)c(=O)n(-c2ccccc2)c(=S)n1-c1ccccc1`, the TGI is more than 100 µM.

With `CCC(C(=O)O)c1ccc(OC)cc1` (stereo unspecified), the TGI was more than 100 µM.

In turn, `COC(CCC[N+](C)(C)C)CC[N+](C)(C)C` (stereo unspecified) gave a TGI of more than 100 µM.

On to `CC(C)(C)N1CSC(=S)N(Cc2ccco2)C1`, for which the TGI was found to be 11.8 µM.

Molecule `CC(C)CCS(=O)(=O)OCCCCOS(=O)(=O)CCC(C)C` displayed a TGI of 29.6 µM.

In turn, `CCCCC#C[I+]c1ccccc1` yielded a TGI of 29 µM.

The molecule `COc1cc(C2c3cc4c(cc3OC(N3CCOCC3)C2C)OCO4)ccc1O` (stereo unspecified) showed a TGI of more than 63.5 µM.

In turn, `O=C1CCCc2cc3c(cc21)CC1(Cc2ccccc2C1)C3` showed a TGI of 25.3 µM.

In the case of `CCOC(=O)c1cn2c(n1)sc1cccc(C)c12`, the TGI is more than 100 µM.

On to `Clc1ccccc1C(SCc1ccccc1)SCc1ccccc1`, for which the TGI is more than 100 µM.

`Cc1c(O)c(O)cc[n+]1C1OC(CO)C(O)C1O` (stereo unspecified) had a TGI of more than 100 µM.

The test system of another assay is K-562 leukemia. Nature of the assay: growth of human tumour cells (NCI), 48 h.
The molecule `COC(=O)C1SC(SC)=NC12c1ccccc1Nc1ccccc12` (stereo unspecified) had a TGI of more than 100 µM.

The molecule `CCOC(=O)CSc1c(C(=O)OCC)c(=O)n(-c2ccccc2)c(=S)n1-c1ccccc1` returned a TGI of more than 100 µM.

With `CCC(C(=O)O)c1ccc(OC)cc1` (stereo unspecified), the TGI is more than 100 µM.

`COC(CCC[N+](C)(C)C)CC[N+](C)(C)C` (stereo unspecified) showed a TGI of more than 100 µM.

Take `CC(C)(C)N1CSC(=S)N(Cc2ccco2)C1`: the TGI was determined as 13.3 µM.

The molecule `CC(C)CCS(=O)(=O)OCCCCOS(=O)(=O)CCC(C)C` showed a TGI of more than 100 µM.

Take `CCCCC#C[I+]c1ccccc1`: the TGI worked out at 40.3 µM.

The molecule `COc1cc(C2c3cc4c(cc3OC(N3CCOCC3)C2C)OCO4)ccc1O` (stereo unspecified) showed a TGI of 33 µM.

For the molecule `O=C1CCCc2cc3c(cc21)CC1(Cc2ccccc2C1)C3`, the TGI was 7.74 µM.

As for `Clc1ccccc1C(SCc1ccccc1)SCc1ccccc1`, the TGI is more than 100 µM.

`Cc1c(O)c(O)cc[n+]1C1OC(CO)C(O)C1O` (stereo unspecified) showed a TGI of more than 100 µM.

The test system of a further assay is HT29 colon. Nature of the assay: growth of human tumour cells (NCI), 48 h.
`O=C(NC(=O)c1ccccc1[N+](=O)[O-])Nc1ccc(Oc2ncc(Br)cn2)c(Cl)c1` gave a TGI of 0.0568 µM.

Consider `COC(=O)C1SC(SC)=NC12c1ccccc1Nc1ccccc12` (stereo unspecified), for which the TGI was more than 100 µM.

Molecule `CCOC(=O)CSc1c(C(=O)OCC)c(=O)n(-c2ccccc2)c(=S)n1-c1ccccc1` returned a TGI of more than 100 µM.

With `CCC(C(=O)O)c1ccc(OC)cc1` (stereo unspecified), the TGI is more than 100 µM.

`COC(CCC[N+](C)(C)C)CC[N+](C)(C)C` (stereo unspecified): the TGI is more than 100 µM.

For `CC(C)(C)N1CSC(=S)N(Cc2ccco2)C1`, the TGI was found to be 13.8 µM.

Molecule `CC(C)CCS(=O)(=O)OCCCCOS(=O)(=O)CCC(C)C` had a TGI of more than 100 µM.

`CCCCC#C[I+]c1ccccc1` had a TGI of 32 µM.

Take `COc1cc(C2c3cc4c(cc3OC(N3CCOCC3)C2C)OCO4)ccc1O` (stereo unspecified): the TGI is more than 100 µM.

On to `O=C1CCCc2cc3c(cc21)CC1(Cc2ccccc2C1)C3`, for which the TGI was 8.6 µM.
